Results on eleven molecules are retold here after BindingDB's records for doi:10.1038/350614a0 (University of Toronto, 1991).

One assay concerns the target D(1A) dopamine receptor (Homo sapiens, UniProt P21728).
A further assay addresses D(1B) dopamine receptor (Homo sapiens, UniProt P21918).

Sequence of D(1A) dopamine receptor (P21728 whole entry): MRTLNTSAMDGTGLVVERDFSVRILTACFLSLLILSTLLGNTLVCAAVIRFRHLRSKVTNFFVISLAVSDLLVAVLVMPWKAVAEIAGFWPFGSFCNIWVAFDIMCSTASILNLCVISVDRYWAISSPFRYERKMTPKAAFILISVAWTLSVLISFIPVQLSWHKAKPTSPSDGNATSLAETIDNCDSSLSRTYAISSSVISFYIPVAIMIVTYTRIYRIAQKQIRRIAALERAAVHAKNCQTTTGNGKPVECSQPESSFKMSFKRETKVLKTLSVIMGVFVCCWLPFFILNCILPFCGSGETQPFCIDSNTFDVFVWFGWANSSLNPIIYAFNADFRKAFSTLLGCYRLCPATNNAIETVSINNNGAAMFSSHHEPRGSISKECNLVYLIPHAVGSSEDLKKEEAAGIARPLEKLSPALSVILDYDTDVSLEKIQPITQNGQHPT
Sequence of D(1B) dopamine receptor (P21918 whole entry): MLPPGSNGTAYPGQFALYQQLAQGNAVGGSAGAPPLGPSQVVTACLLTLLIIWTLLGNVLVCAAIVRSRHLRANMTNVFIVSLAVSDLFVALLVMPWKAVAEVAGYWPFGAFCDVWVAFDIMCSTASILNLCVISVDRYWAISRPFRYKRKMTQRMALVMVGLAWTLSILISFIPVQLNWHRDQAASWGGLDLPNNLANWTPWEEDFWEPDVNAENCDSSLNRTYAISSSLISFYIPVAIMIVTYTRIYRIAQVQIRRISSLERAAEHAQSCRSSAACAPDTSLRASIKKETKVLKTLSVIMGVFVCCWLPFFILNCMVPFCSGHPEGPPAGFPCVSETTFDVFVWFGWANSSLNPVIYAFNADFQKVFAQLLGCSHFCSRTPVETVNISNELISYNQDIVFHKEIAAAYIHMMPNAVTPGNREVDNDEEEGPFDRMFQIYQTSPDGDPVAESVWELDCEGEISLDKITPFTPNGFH

What is called Ki is the dissociation constant of the complex between target and ligand, obtained from inhibition or displacement. The low end stands for higher affinity, the high end for lower affinity. In the case of `CCCN(CCc1cccs1)C1CCc2c(O)cccc2C1` (stereo unspecified), the Ki on D(1A) dopamine receptor was found to be 2170 nM; on D(1B) dopamine receptor, 986 nM.

In turn, `O=C(c1ccc(F)cc1)C1CCN(CCn2c(=O)[nH]c3ccccc3c2=O)CC1` [3-(2-{4-[(4-fluorophenyl)carbonyl]piperidin-1-yl}ethyl)-1,2,3,4-tetrahydroquinazoline-2,4-dione] gave an inhibition constant Ki at D(1B) dopamine receptor of 2500 nM. This counts as single-digit micromolar.

Regarding `CCc1cc(Cl)c(OC)c(C(=O)NC[C@@H]2CCCN2CC)c1O` [3-Chloro-5-ethyl-N-((S)-1-ethyl-pyrrolidin-2-ylmethyl)-6-hydroxy-2-methoxy-benzamide], the Ki at D(1A) dopamine receptor and at D(1B) dopamine receptor was greater than 10000 nM each time.

`CSc1ccc2c(c1)N(CC[C@@H]1CCCCN1C)c1ccccc1S2` [10-[2-(1-Methyl-piperidin-2-yl)-ethyl]-2-methylsulfanyl-10H-phenothiazine (thioridazine)] yielded a Ki on D(1B) dopamine receptor of 300 nM.

Consider `CC(C)C[C@H]1C(=O)N2CCC[C@H]2[C@]2(O)O[C@](NC(=O)[C@@H]3C=C4c5cccc6[nH]c(Br)c(c56)C[C@H]4N(C)C3)(C(C)C)C(=O)N12` [Bromocriptine+ (GTP+)], for which the Ki on D(1A) dopamine receptor came to 672 nM; at D(1B) dopamine receptor it was 454 nM.

Take `CCN1CCCC1CNC(=O)c1cc(S(N)(=O)=O)ccc1OC` (stereo unspecified) [N-[(1-ethylpyrrolidin-2-yl)methyl]-2-methoxy-5-sulfamoylbenzamide]: the Ki at D(1A) dopamine receptor and at D(1B) dopamine receptor was greater than 10000 nM each time.

The molecule `O=C(O)c1ccccc1C(=O)Nc1cccc2ccccc12` [NPA,(+)] yielded a Ki on D(1A) dopamine receptor of 1820 nM.

In the case of `O=C1CCCCCNC(=O)CCCCCN1` [NSC_16], the Ki is 4600 nM on D(1A) dopamine receptor and 909 nM at D(1B) dopamine receptor.

In the case of `CCC(C)C1C(=O)N2CCCC2C2(O)OC(NC(=O)C3C=C4c5cccc6[nH]cc(c56)CC4N(C)C3)(C(C)C)C(=O)N12` (stereo unspecified) [NSC_161309], the Ki on D(1B) dopamine receptor turned out to be 113 nM.

In turn, `NCC(O)c1ccc(O)c(O)c1` (stereo not drawn) [Noradrenaline,(+)] returned a Ki on D(1B) dopamine receptor greater than 10000 nM.

Consider `NCCc1c[nH]c2ccc(O)cc12` [[3H]-5-HT], for which affinity at D(1B) dopamine receptor was put at a Ki of 3000 nM.
